Results as given in patent publication US20100216886A1, “POLYMORPHS OF N2-(1,1'-BIPHENYL-4-YLCARBONYL)-N1-[2-(4-FLUOROPHENYL)-1,1-DIMETHYLETHYL]-L-ALPHA-GLUTAMINE” (Wyeth, priority 2006, published 2010).
≈ marks a conversion by molar mass, not a printed value. Entries after “also recorded” stand apart in the source; their conditions may differ. Counter-ions that a name gives are not always drawn. Like-named read-outs stand apart in the source and are kept apart here.

What was measured:
[1] = Equilibrium moisture study in desiccators with saturated salt solutions (KF, XRD); assay type: physicochemical; details: Sample F incubated at room temperature, 20 days; listed as sesquihydrate
Procedure: As a result, an equilibrium moisture study using desiccators containing saturated salt solutions for humidity control was performed. […] Samples were periodically assayed by KF titration to give the kinetic profiles. XRD analysis was performed at the end of 20 days. The data is summarized in Table 8 with kinetic and equilibrium data plotted in FIGS. 18 and 19.

[2] = Dynamic Vapor Sorption (DVS) analysis; assay type: physicochemical; details: room temperature, 6-hour equilibration period
Text: Sample F was subject to Dynamic Vapor Sorption (DVS) analysis at room temperature. The sample was first analyzed by Karl Fischer (KF) titration containing initial moisture content of 3.7% for the monohydrate form. RH cycling started at 50% relative humidity (RH) to 100% RH and down to 0% RH and then back up to 100% RH. A 3-hour/step equilibration period was found insufficient, so the run was repeated with a 6-hour period, which was still not sufficient.
As a result, an equilibrium moisture study using desiccators containing saturated salt solutions for humidity control was performed. Sample F was incubated at 0%, 15%, 31%, 66%, 87%, and 100% RH in room temperature for up to 20 days. Samples were periodically assayed by KF titration to give the kinetic profiles. XRD analysis was performed at the end of 20 days. The data is summarized in Table 8 with kinetic and equilibrium data plotted in FIGS. 18 and 19.

[3] = Solubility in water and 2% Tw80 of samples used in toxicological formulation assessments; assay type: physicochemical
Text: Table 6 summarizes various solid-state properties of samples used in toxicological formulation assessments.

[4] = In situ rat perfusion model, metoprolol as reference; assay type: in vivo; design: Papp: dose or concentration left out as unconfirmed
Text: The permeability was 18.2 nm/sec, which is higher than the 14.5 nm/sec value obtained for metoprolol (Table 13).

[5] = First CACO-2 study, metoprolol as reference; details: human; for recovery: Caco-2, pH 7.4, % Recovery, pH 7.4
[6] = Second CACO-2 study, propranolol as reference; assay type: in vitro ADME; details: human, Caco-2; A → B, apical pH 6, basolateral pH 7, without verapamil
Text: The second CACO-2 study gave somewhat different results (Table 12). Because metoprolol interferes with the LC/MS assay, propranolol, which has a permeability that is […] metoprolol, was used as the FDA calibration compound. The apical pH was controlled at 6 and basolateral pH at pH 7. In addition, verapamil was used as a competitive inhibitor of the Pgp (P-glycoprotein) transporter. The ratios to propranolol were 1.00 and 0.77 with and without verapamil. […] The B→A/A→B ratios were low at 0.3 and 0.3, with and without verapamil, respectively, indicating again no efflux […].

[7] = Solubility of suspensions in Tox formulation (2% Tween 80 in water) by HPLC; assay type: physicochemical; details: ambient conditions
Procedure: Suspensions of 10 to 20 mg/mL of compound (I) in a Tox (toxicological) formulation (2% Tween 80 in water) using the polymorphs described above were prepared and equilibrated at ambient conditions. The stability of the suspensions was evaluated visually and the solubility of the suspensions was determined by HPLC.
Mobile Phase: A=900 mL/100 mL/0.1 mL Water/Acetonitrile/TFA
B=100 mL/900 mL/0.1 mL Water/Acetonitrile/TFA

[8] = Polymorphic conversion study in aqueous media (2% Tween 80, water); assay type: physicochemical
Text: Polymorphic conversion of Form A to Form B was not observed with Sample D in 2% Tween 80 or water.
Polymorph pseudo Form A was obtained from a scaled up preparation of polymorph Form A (Sample E).
The polymorphic conversion appeared to be slower in water than in the 2% Tween suspension, probably due to the lower solubility in water.
DSC data also supported this observation (FIG. 11).

physchem = details: for solubility at 24 h: aqueous buffer, thermodynamic from solid
Procedure: The pH solubility profile was generated first with Sample D containing polymorph Form A, and then with Sample F containing polymorph Form B, in HCl/NaOH solutions. After 24 hour equilibration, suspensions were centrifuged and the supernatants assayed by HPLC.
The solubility data was analyzed as a function of pH using the Henderson-Hasselbach equation:
Solubility=S0·[10^(PH-pKa)+1],
where S0 is the intrinsic solubility of the free acid.

Solid state stability [9] = assay type: physicochemical
[10] = Thermal stress of polymorph Form B (vacuum drying, oven); assay type: physicochemical
Procedure: Polymorph Form B (Sample F) was stressed with vacuum drying at 40° C.

Solid state stability [11] = assay type: physicochemical; details: 40° C./75% RH, open and closed vials, 3 months
Procedure: Sample F containing polymorph Form B was further investigated at 40° C./75% RH using open and closed vials for 3 months. […] Therefore, the monohydrate needs to be stored in hermetically sealed containers in order to prevent conversion to the sesquihydrate.

[12] = vacuum drying at 40° C., 36 hours
[13] = 1-month storage at 40° C./75% RH

## CC(C)(Cc1ccc(F)cc1)NC(=O)[C@H](CCC(=O)O)NC(=O)c1ccc(-c2ccccc2)cc1 [Form C, N^2-(1,1′-biphenyl-4-ylcarbonyl)-N^1-[2-(4-fluorophenyl)-1,1-dimethylethyl]-L-α-glutamine]
[1]
  RH range at which the form is present by XRD: 66-100 % RH
[2]
  RH range in which the form is stable (DVS): 30-100 % RH

## CC(C)(Cc1ccc(F)cc1)NC(=O)[C@H](CCC(=O)O)NC(=O)c1ccc(-c2ccccc2)cc1 [G, N^2-(1,1′-biphenyl-4-ylcarbonyl)-N^1-[2-(4-fluorophenyl)-1,1-dimethylethyl]-L-α-glutamine]
[3]
  Solubility, 2% Tw80: 127 µg/mL (≈ 266 µM)
  pH of 2% Tw80 solubility sample: 5.9

## COCCc1ccc(OCC(O)CNC(C)C)cc1 (centres unmarked) [Metoprolol, reference compound]
[4]; in situ rat perfusion model, read-out: permeability
  Papp: 1.45 ×10⁻⁶ cm/s
[4]; rat perfusion, 20 μg/mL
  Peff × 10^−1 (μm/sec): 1.45 × 10^−1 μm/sec
[5]; Caco-2, pH 7.4
  Papp A→B: 60.4 ×10⁻⁶ cm/s
[5]; A → B
  recovery: 109%
[5]; B → A
  recovery: 115%

## CC(C)NCC(O)COc1cccc2ccccc12 (centres unmarked) [Propranolol, reference compound]
[6]
  Papp A→B: 62.6 ×10⁻⁶ cm/s

## CC(C)(Cc1ccc(F)cc1)NC(=O)[C@H](CCC(=O)O)NC(=O)c1ccc(-c2ccccc2)cc1 [Sample 1, N^2-(1,1′-biphenyl-4-ylcarbonyl)-N^1-[2-(4-fluorophenyl)-1,1-dimethylethyl]-L-α-glutamine]
[7]
  solubility: 201.9 µg/mL (≈ 424 µM)

## CC(C)(Cc1ccc(F)cc1)NC(=O)[C@H](CCC(=O)O)NC(=O)c1ccc(-c2ccccc2)cc1 [Sample 2, N^2-(1,1′-biphenyl-4-ylcarbonyl)-N^1-[2-(4-fluorophenyl)-1,1-dimethylethyl]-L-α-glutamine]
[7]
  solubility: 245.0 µg/mL (≈ 514 µM)

## CC(C)(Cc1ccc(F)cc1)NC(=O)[C@H](CCC(=O)O)NC(=O)c1ccc(-c2ccccc2)cc1 [Sample 4, N^2-(1,1′-biphenyl-4-ylcarbonyl)-N^1-[2-(4-fluorophenyl)-1,1-dimethylethyl]-L-α-glutamine]
[7]; 2% Tween 80 in water (Tox formulation), aqueous with cosolvent or surfactant or cyclodextrin, thermodynamic from solid, read-out: Solubility
  solubility: 221 µg/mL (≈ 464 µM)

## CC(C)(Cc1ccc(F)cc1)NC(=O)[C@H](CCC(=O)O)NC(=O)c1ccc(-c2ccccc2)cc1 [Sample 7, N^2-(1,1′-biphenyl-4-ylcarbonyl)-N^1-[2-(4-fluorophenyl)-1,1-dimethylethyl]-L-α-glutamine]
[7]
  solubility: 216.4 µg/mL (≈ 454 µM)

## CC(C)(Cc1ccc(F)cc1)NC(=O)[C@H](CCC(=O)O)NC(=O)c1ccc(-c2ccccc2)cc1 [Sample A, N^2-(1,1′-biphenyl-4-ylcarbonyl)-N^1-[2-(4-fluorophenyl)-1,1-dimethylethyl]-L-α-glutamine]
[8]; after conversion in 2% Tween 80 or water
  Degradation products of compound (I) by HPLC in converted materials: do not contain degradation products

## CC(C)(Cc1ccc(F)cc1)NC(=O)[C@H](CCC(=O)O)NC(=O)c1ccc(-c2ccccc2)cc1 [Sample D, N^2-(1,1′-biphenyl-4-ylcarbonyl)-N^1-[2-(4-fluorophenyl)-1,1-dimethylethyl]-L-α-glutamine]
[3]
  Solubility, 2% Tw80: 468 µg/mL (≈ 982 µM)
  pH of 2% Tw80 solubility sample: 5.4
  Solubility, Water: 37 µg/mL (≈ 77.6 µM)
  pH of water solubility sample: 5.5
physchem; Solubility at pH<4
  solubility at 24 h: ~4.5 µg/mL (≈ 9.44 µM)
[8]; 2% Tween 80/water suspension, overnight
  Polymorphic conversion: not observed; also recorded: did not undergo polymorphic conversion
[8]; suspension 100 mg/mL in water, overnight (~18 hr), ambient conditions
  Polymorphic conversion / Polymorph Form after stirring: not observed; also recorded: did not undergo polymorphic conversion
Solid state stability [9]; 14-day storage at room temperature, in temperatures up to 80° C., and in a light box (510 fc)
  Chemical stability, solid state: demonstrated chemical stability

## CC(C)(Cc1ccc(F)cc1)NC(=O)[C@H](CCC(=O)O)NC(=O)c1ccc(-c2ccccc2)cc1 [Sample F, N^2-(1,1′-biphenyl-4-ylcarbonyl)-N^1-[2-(4-fluorophenyl)-1,1-dimethylethyl]-L-α-glutamine]
[10]; 100° C. oven, 23 hours
  Conversion of monohydrate to anhydrate: convert completely to the anhydrate
[10]; [12]
  Conversion of monohydrate to anhydrate: did not convert to the anhydrate
  Water retained: 2.95%
[3]
  Solubility, 2% Tw80: 217 µg/mL (≈ 455 µM)
  pH of 2% Tw80 solubility sample: 5.9
  Solubility, Water: 99 µg/mL (≈ 208 µM)
  pH of water solubility sample: 7.6
physchem; Solubility at pH<4 (below HPLC detection limit)
  solubility at 24 h: < 0.011 µg/mL
Solid state stability [9]; [13]
  Polymorphic conversion (DSC and XRD): polymorphic conversion from Form B to Form C
  Water content: 5.4%
Solid state stability [11]
  Chemical stability, solid state: chemically stable

## CC(C)(Cc1ccc(F)cc1)NC(=O)[C@H](CCC(=O)O)NC(=O)c1ccc(-c2ccccc2)cc1 [sodium salt, N^2-(1,1′-biphenyl-4-ylcarbonyl)-N^1-[2-(4-fluorophenyl)-1,1-dimethylethyl]-L-α-glutamine]
physchem; HCl/NaOH solutions, 24 hour equilibration, HPLC
  Solubility at pH 12.8: 4.7 mg/mL
